Experimental data: patent US9493455B2, “Azaindole derivatives as inhibitors of protein kinases” (ORIBASE PHARMA, priority 2012, dated 2016)

Tests used:
Assay in all cases: In vitro kinase assay (Z′-LYTE)
Format in all cases: biochemical
ERBB4 = target: T1, ERBB4 (Homo sapiens, UniProt Q15303); settings: read-out: percent inhibition of the kinase compared to the control
T1 construct: purchased Invitrogen
Method in brief: (§1)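 Single-point inhibition at 100 nM per compound (10 μM for ABL T315I), 1% DMSO final. Kinase buffer: 50 mM HEPES pH 7.5, 0.01% BRIJ-35, 10 mM MgCl2, 1 mM EGTA; ATP at previously determined apparent Km. Readout by FRET emission ratio (Z′-LYTE).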

ABL2 = target: T2, ABL2 (Homo sapiens, UniProt P42684); settings: read-out: percent inhibition of the kinase compared to the control
T2 construct: purchased Invitrogen
Method in brief: as §1

FES = target: T3, FES (Homo sapiens, UniProt P07332); settings: read-out: percent inhibition of the kinase compared to the control
T3 construct: purchased Invitrogen
Method in brief: as §1

FGFR2 = target: T4, FGFR2 (Homo sapiens, UniProt P21802); settings: read-out: % of inhibition of the kinase compared to the control
T4 construct: purchased Invitrogen
T4 sequence (P21802 22-821): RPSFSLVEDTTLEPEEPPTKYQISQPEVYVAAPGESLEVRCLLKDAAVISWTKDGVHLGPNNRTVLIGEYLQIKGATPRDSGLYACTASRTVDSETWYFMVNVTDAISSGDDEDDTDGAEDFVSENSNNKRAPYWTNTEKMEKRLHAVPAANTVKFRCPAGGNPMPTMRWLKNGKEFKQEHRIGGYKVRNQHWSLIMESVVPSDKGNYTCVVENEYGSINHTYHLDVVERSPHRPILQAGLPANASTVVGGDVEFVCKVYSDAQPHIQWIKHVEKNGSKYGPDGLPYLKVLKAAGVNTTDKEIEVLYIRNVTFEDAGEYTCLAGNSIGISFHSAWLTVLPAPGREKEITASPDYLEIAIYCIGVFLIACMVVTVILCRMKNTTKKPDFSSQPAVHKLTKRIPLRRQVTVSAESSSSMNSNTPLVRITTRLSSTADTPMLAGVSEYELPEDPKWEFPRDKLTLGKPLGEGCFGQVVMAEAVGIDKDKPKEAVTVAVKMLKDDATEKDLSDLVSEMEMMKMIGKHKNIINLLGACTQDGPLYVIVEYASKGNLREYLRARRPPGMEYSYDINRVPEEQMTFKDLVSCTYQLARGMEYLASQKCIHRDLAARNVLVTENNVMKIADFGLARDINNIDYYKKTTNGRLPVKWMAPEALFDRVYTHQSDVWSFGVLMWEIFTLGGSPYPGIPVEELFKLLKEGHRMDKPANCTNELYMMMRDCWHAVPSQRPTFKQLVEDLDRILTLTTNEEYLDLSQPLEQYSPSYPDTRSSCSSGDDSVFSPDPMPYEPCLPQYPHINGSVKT
Method in brief: as §1

YES = target: T5, YES (Homo sapiens, UniProt P07947); settings: read-out: percent inhibition of the kinase compared to the control
T5 construct: purchased Invitrogen
T5 sequence (P07947 whole entry): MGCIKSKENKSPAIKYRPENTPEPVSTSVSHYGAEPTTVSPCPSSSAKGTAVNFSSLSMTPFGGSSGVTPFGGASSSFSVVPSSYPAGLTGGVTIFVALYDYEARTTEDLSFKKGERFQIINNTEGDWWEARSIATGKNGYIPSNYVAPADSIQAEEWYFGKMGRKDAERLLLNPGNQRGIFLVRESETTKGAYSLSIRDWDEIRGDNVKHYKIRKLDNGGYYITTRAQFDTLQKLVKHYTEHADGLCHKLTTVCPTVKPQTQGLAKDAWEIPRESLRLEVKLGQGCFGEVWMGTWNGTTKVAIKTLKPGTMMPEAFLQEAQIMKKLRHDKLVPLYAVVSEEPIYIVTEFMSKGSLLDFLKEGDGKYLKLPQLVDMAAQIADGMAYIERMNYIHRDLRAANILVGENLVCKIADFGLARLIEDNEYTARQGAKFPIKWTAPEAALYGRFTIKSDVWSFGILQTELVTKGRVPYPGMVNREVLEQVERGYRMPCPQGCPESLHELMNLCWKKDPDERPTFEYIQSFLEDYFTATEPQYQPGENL
Method in brief: as §1

PDGFRB = target: T6, PDGFRB (Homo sapiens, UniProt P09619); settings: read-out: % of inhibition of the kinase compared to the control
T6 construct: purchased Invitrogen
T6 sequence (P09619 33-1106): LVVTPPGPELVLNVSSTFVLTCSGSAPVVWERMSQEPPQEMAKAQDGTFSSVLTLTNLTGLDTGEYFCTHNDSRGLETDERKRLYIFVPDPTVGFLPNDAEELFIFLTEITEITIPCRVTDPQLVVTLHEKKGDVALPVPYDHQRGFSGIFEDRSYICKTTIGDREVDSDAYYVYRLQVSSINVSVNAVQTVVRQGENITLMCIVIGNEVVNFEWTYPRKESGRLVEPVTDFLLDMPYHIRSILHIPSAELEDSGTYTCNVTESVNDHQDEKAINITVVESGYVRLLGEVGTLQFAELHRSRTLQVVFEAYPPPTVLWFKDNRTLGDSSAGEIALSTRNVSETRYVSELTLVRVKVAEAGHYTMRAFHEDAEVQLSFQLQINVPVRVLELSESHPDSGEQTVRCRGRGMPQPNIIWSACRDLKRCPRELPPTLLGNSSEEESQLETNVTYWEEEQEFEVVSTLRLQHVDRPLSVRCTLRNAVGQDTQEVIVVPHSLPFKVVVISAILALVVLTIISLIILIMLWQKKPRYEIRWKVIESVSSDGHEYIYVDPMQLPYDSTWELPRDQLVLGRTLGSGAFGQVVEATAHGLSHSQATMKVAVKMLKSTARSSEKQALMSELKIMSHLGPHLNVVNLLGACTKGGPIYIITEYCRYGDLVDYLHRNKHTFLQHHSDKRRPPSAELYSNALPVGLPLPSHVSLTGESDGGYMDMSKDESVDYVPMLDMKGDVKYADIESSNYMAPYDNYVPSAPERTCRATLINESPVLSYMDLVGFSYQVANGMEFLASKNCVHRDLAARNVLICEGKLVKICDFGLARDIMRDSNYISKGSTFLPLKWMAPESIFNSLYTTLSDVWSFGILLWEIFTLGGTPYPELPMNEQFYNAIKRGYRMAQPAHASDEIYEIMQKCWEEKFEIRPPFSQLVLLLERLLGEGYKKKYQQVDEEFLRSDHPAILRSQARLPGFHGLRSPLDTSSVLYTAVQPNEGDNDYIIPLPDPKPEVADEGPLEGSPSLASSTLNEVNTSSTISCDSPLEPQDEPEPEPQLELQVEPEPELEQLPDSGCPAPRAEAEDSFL
Method in brief: as §1

BMX = target: T7, BMX (Homo sapiens, UniProt P51813); settings: read-out: percent inhibition of the kinase compared to the control
T7 construct: purchased Invitrogen
T7 sequence (P51813 whole entry): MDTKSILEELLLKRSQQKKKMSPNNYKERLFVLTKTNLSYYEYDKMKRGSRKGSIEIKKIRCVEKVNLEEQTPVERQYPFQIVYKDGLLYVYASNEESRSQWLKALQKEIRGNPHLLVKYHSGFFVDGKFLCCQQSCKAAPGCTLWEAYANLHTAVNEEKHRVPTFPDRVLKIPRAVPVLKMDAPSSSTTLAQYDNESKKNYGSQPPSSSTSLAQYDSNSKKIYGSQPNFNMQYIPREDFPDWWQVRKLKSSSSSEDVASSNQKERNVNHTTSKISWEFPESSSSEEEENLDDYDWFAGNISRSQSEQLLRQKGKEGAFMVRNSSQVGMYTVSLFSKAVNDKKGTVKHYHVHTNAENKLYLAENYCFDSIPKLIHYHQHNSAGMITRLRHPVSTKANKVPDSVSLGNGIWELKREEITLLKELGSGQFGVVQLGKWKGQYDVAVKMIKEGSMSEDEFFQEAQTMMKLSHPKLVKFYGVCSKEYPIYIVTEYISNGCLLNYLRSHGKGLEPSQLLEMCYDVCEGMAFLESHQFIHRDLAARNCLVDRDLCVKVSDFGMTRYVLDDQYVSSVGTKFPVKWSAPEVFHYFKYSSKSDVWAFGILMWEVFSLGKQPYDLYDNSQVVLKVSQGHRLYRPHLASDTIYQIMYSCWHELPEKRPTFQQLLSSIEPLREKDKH
Method in brief: as §1

BRAF = target: T8, BRAF (Homo sapiens, UniProt P15056); settings: compound 100 nM; ATP 100 μM; read-out: % of inhibition of the kinase compared to the control
T8 construct: purchased Invitrogen
Method in brief: as §1

EPHA4 = target: T9, EPHA4 (Homo sapiens, UniProt P54764); settings: read-out: percent inhibition of the kinase compared to the control
T9 construct: purchased Invitrogen
T9 sequence (P54764 20-986): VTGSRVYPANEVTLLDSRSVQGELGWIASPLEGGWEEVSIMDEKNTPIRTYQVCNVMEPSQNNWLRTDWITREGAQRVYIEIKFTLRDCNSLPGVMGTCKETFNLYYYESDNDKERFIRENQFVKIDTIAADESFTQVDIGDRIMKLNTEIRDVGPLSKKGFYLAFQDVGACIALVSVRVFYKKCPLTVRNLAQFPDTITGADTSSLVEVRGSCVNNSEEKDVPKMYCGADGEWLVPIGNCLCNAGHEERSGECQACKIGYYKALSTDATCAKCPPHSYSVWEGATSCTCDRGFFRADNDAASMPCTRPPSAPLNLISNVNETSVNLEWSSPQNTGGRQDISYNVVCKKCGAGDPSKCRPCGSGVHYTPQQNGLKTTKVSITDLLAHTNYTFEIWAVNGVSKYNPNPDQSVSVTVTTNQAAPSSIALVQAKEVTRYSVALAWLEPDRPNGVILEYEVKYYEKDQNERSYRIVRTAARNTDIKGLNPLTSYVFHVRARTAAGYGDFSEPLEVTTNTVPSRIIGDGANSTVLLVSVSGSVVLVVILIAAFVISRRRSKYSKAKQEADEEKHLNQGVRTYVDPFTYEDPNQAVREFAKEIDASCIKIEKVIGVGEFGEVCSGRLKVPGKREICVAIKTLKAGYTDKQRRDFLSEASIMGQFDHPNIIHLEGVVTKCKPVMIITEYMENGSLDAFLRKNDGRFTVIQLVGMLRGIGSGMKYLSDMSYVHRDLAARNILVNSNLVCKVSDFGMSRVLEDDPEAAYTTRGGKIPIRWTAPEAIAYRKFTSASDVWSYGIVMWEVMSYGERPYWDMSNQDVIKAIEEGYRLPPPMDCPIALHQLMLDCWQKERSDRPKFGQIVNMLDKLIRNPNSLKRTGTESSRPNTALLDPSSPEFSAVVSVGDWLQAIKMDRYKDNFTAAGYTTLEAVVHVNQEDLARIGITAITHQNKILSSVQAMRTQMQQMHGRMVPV
Method in brief: as §1

ERK2 = target: T10, ERK2 (Homo sapiens, UniProt P28482); settings: read-out: percent inhibition of the kinase compared to the control
T10 construct: purchased Invitrogen
T10 sequence (P28482 whole entry): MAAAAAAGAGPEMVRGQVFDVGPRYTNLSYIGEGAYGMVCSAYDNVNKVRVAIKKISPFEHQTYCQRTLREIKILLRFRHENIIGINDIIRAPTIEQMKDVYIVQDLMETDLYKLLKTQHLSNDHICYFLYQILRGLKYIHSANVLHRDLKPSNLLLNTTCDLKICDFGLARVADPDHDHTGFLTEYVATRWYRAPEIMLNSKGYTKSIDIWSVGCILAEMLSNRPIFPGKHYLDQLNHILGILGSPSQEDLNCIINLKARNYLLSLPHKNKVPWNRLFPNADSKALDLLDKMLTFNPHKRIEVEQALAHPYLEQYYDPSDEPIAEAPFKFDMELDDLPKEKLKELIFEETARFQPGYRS
Method in brief: as §1

## COC(=O)c1cc2cc(NCc3cc(NC(=O)c4ccc(CN5CCN(C)CC5)c(C(F)(F)F)c4)ccc3C)cnc2[nH]1 [OR0512]
ERBB4
  inhibition at 0.1 µM: > 50%
ABL2
  inhibition at 0.1 µM: > 50%
FES
  inhibition at 0.1 µM: > 50%
FGFR2
  inhibition at 0.1 µM: ≥ 50%
YES
  inhibition at 0.1 µM: > 50%
PDGFRB
  inhibition at 0.1 µM: ≥ 50%
BMX
  inhibition at 0.1 µM: > 50%
BRAF
  inhibition at 0.1 µM: ≥ 50%
EPHA4
  inhibition at 0.1 µM: > 50%
ERK2
  inhibition at 0.1 µM: > 50%
